ChEMBL document CHEMBL1153983, “Anti-HBV agents. Part 2: synthesis and in vitro anti-hepatitis B virus activities of alisol A derivatives” (Bioorg Med Chem Lett, 2009)

Key:
Hepatitis B virus [1] = assay: Antiviral activity against HBV assessed as inhibition of viral early antigen secretion; format: functional, organism-based
Hepatitis B virus [2] = assay: Antiviral activity against HBV assessed as inhibition of viral surface antigen secretion; format: functional, organism-based
[3] = Selectivity index, ratio of CC50 for human HepG2(2.2.15) cells to IC50 for HBV surface antigen secretion; format: functional
[4] = Selectivity index, ratio of CC50 for human HepG2(2.2.15) cells to IC50 for HBV early antigen secretion; format: functional
[5] = Cytotoxicity against human HepG2(2.2.15) cells; format: cell-based

Compound | IC50 (Hepatitis B virus [1]) [µM] | IC50 (Hepatitis B virus [2]) [µM] | Ratio CC50/IC50 [3] | Ratio CC50/IC50 [4] | CC50 [5] [µM]
CCOCC(=O)O[C@@H](C[C@@H](C)C1=C2C[C@H](OC(=O)COCC)[C@H]3[C@@]4(C)CCC(=O)C(C)(C)[C@@H]4CC[C@]3(C)[C@@]2(C)CC1)[C@@H](OC(=O)COCC)C(C)(C)OC(=O)COCC | 260 | 200 | >11 | >8.7 | > 2300
CCOCC(=O)O[C@@H](C[C@@H](C)[C@]12CC[C@@]3(C)[C@@]1(C[C@H](OC(=O)COCC)[C@H]1[C@@]4(C)CCC(=O)C(C)(C)[C@@H]4CC[C@@]13C)O2)[C@@H](OC(=O)COCC)C(C)(C)O | > 250 | 130 | 1.9 | <1 | 250
C[C@H](C[C@H](OC(=O)CNC(=O)OC(C)(C)C)[C@@H](OC(=O)CNC(=O)OC(C)(C)C)C(C)(C)O)C1=C2C[C@H](OC(=O)CNC(=O)OC(C)(C)C)[C@H]3[C@@]4(C)CCC(=O)C(C)(C)[C@@H]4CC[C@]3(C)[C@@]2(C)CC1 | 94 | 320 | >4.7 | >16 | > 1500
C=C(C)[C@H](OC(=O)COCC)[C@H](C[C@@H](C)C1=C2C[C@H](OC(=O)COCC)[C@H]3[C@@]4(C)CCC(=O)C(C)(C)[C@@H]4CC[C@]3(C)[C@@]2(C)CC1)OC(=O)COCC | 30 | 20 | >60 | >40 | > 1200
CC(=O)NCC(=O)O[C@@H](C[C@@H](C)C1=C2C[C@H](OC(=O)CNC(C)=O)[C@H]3[C@@]4(C)CCC(=O)C(C)(C)[C@@H]4CC[C@]3(C)[C@@]2(C)CC1)[C@@H](OC(=O)CNC(C)=O)C(C)(C)O | 880 | 290 | <1 | <1 | 270
Nc1ccn([C@@H]2CS[C@H](CO)O2)c(=O)n1 [LAMIVUDINE] | 38000 | 18000 | 1.7 | 0.82 | 31000
CC(=O)OCC(=O)O[C@@H](C[C@@H](C)[C@]12CC[C@@]3(C)[C@@]1(C[C@H](OC(=O)COC(C)=O)[C@H]1[C@@]4(C)CCC(=O)C(C)(C)[C@@H]4CC[C@@]13C)O2)[C@@H](OC(=O)COC(C)=O)C(C)(C)O | > 250 | 120 | 2.1 | <1 | 250
COCC(=O)O[C@@H](C[C@@H](C)[C@]12CC[C@@]3(C)[C@@]1(C[C@H](OC(=O)COC)[C@H]1[C@@]4(C)CCC(=O)C(C)(C)[C@@H]4CC[C@@]13C)O2)[C@@H](OC(=O)COC)C(C)(C)O | > 1100 | 900 | 1.2 | <1 | 1100
